Assays:
MMP-2 = target: T1, MMP-2 (Homo sapiens, UniProt P08253); experiment: K(obs) of individual phage substrates (set of 1369); format: biochemical; details: MMP2; individual phage substrate from the set of 1369 peptides; hyphen in the sequence marks the cleavage position
T1 sequence (P08253 110-660): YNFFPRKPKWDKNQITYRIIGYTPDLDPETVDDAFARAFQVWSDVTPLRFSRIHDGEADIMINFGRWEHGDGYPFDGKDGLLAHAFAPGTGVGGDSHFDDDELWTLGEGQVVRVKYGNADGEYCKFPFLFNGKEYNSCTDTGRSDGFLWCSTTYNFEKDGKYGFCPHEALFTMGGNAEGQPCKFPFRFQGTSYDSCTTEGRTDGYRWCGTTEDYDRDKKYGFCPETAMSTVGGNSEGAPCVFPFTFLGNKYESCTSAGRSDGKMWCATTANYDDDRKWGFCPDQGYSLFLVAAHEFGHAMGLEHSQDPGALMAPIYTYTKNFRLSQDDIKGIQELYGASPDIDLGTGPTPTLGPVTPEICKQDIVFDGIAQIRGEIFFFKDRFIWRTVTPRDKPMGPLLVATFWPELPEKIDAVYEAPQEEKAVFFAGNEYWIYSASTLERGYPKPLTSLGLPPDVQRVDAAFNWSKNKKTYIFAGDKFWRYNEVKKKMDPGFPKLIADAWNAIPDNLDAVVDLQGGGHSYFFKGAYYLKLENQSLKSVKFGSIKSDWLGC

MMP-9 [1] = experiment: Substrate phage display with NGS: relative probability (RP) of P3-P1' tetramer clusters; format: biochemical, human; details: MMP9; RP of the substrate's P3-P1' tetramer, substrate phage display with NGS;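 note: ratio of tetramer probability after protease selection to that in naive phage library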
MMP-9 [2] = target: MMP-9 (Homo sapiens, UniProt P14780); experiment: K(obs) of individual phage substrates (set of 1369); format: biochemical; details: MMP9; individual phage substrate of the set of 1369 peptides; dash in sequence marks cleavage position
Chain of MMP-9 (Homo sapiens, UniProt P14780) (P14780 94-707): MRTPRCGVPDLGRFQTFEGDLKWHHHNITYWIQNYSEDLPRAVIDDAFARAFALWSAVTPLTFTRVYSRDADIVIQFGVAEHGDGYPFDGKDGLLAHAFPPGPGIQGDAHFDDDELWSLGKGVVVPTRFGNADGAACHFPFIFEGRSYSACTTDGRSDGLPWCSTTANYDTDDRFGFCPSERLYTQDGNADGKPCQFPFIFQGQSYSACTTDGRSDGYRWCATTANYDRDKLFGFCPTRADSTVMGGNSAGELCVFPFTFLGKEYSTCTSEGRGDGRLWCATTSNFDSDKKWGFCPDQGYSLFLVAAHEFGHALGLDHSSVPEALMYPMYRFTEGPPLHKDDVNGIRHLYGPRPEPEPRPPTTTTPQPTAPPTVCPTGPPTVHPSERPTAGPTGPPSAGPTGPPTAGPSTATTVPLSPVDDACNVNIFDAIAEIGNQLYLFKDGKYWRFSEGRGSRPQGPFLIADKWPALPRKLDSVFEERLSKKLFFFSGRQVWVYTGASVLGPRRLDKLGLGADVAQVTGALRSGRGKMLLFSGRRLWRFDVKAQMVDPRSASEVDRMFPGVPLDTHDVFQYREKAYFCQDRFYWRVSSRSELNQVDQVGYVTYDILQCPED

Substance	Kobs (MMP-2)	relative probability (RP) (MMP-9 [1])	Kobs (MMP-9 [2])
SGASN-LRGTA	12792.1 M⁻¹ s⁻¹	27.6194	12792.1 M⁻¹ s⁻¹
SGAYN-FQATA	3438.54 M⁻¹ s⁻¹	19.0941	12792.1 M⁻¹ s⁻¹
SGISA-LRKTA	6688.74 M⁻¹ s⁻¹	16.3812	0 M⁻¹ s⁻¹
SGISW-MRHTA	7815.03 M⁻¹ s⁻¹	21.4	2476.66 M⁻¹ s⁻¹
SGPAS-FSVTA	12792.1 M⁻¹ s⁻¹	30.2578	2344.36 M⁻¹ s⁻¹
SGPAS-LLNTA	12792.1 M⁻¹ s⁻¹	46.2982	9740.44 M⁻¹ s⁻¹
SGPAS-VRNTA	12792.1 M⁻¹ s⁻¹	25.8589	2837.92 M⁻¹ s⁻¹
SGPFS-NRATA	292.668 M⁻¹ s⁻¹	1.097	2687.73 M⁻¹ s⁻¹
SGPGA-MMFTA	12792.1 M⁻¹ s⁻¹	36.3159	5090.5 M⁻¹ s⁻¹
SGPHY-LMMTA	6396.07 M⁻¹ s⁻¹	37.3972	6688.74 M⁻¹ s⁻¹
SGPKF-LVMTA	1981.53 M⁻¹ s⁻¹	42.7484	12792.1 M⁻¹ s⁻¹
SGPKG-MRMTA	9740.44 M⁻¹ s⁻¹	48.8441	12792.1 M⁻¹ s⁻¹
SGPKL-LTASG	5090.5 M⁻¹ s⁻¹	35.7561	12792.1 M⁻¹ s⁻¹
SGPKL-LYGTA	4205.91 M⁻¹ s⁻¹	35.7561	12792.1 M⁻¹ s⁻¹
SGPKQ-LRVTA	12792.1 M⁻¹ s⁻¹	43.3387	12792.1 M⁻¹ s⁻¹
SGPKW-MRHTA	2409.72 M⁻¹ s⁻¹	51.5185	4922.1 M⁻¹ s⁻¹
SGPLK-ITRTA	0 M⁻¹ s⁻¹	38.9391	2837.92 M⁻¹ s⁻¹
SGPQW-MINTA	6131.32 M⁻¹ s⁻¹	45.9264	4613.14 M⁻¹ s⁻¹
SGPRA-VSATA	12792.1 M⁻¹ s⁻¹	40.8515	12792.1 M⁻¹ s⁻¹
SGPRD-ILATA	12792.1 M⁻¹ s⁻¹	41.2501	12792.1 M⁻¹ s⁻¹
SGPRF-LIGTA	3964.21 M⁻¹ s⁻¹	42.4535	6131.32 M⁻¹ s⁻¹
SGPRF-LLDTA	5889.62 M⁻¹ s⁻¹	42.4535	7386.83 M⁻¹ s⁻¹
SGPRG-MKTTA	1418.96 M⁻¹ s⁻¹	47.6962	7815.03 M⁻¹ s⁻¹
SGPRG-VTVTA	12792.1 M⁻¹ s⁻¹	42.1832	12792.1 M⁻¹ s⁻¹

Substance	Kobs (MMP-2)	relative probability (RP) (MMP-9 [1])	Kobs (MMP-9 [2])
SGPRL-YIGTA	5667.28 M⁻¹ s⁻¹	32.3351	12792.1 M⁻¹ s⁻¹
SGPRN-LAVTA	12792.1 M⁻¹ s⁻¹	48.2698	12792.1 M⁻¹ s⁻¹
SGPRN-YHGTA	12792.1 M⁻¹ s⁻¹	46.9938	12792.1 M⁻¹ s⁻¹
SGPRQ-LSTTA	12792.1 M⁻¹ s⁻¹	43.5363	12792.1 M⁻¹ s⁻¹
SGPRS-HRVTA	3637.04 M⁻¹ s⁻¹	23.1314	3253.29 M⁻¹ s⁻¹
SGPRS-LKSTA	12792.1 M⁻¹ s⁻¹	44.7764	12792.1 M⁻¹ s⁻¹
SGPRS-WTNTA	5889.62 M⁻¹ s⁻¹	40.7744	5090.5 M⁻¹ s⁻¹
SGPRT-LVVTA	12792.1 M⁻¹ s⁻¹	42.2705	12792.1 M⁻¹ s⁻¹
SGPRW-LMSTA	12792.1 M⁻¹ s⁻¹	47.776	12792.1 M⁻¹ s⁻¹
SGPSA-LDATA	5269.78 M⁻¹ s⁻¹	47.6113	799.117 M⁻¹ s⁻¹
SGPSG-WTATA	7815.03 M⁻¹ s⁻¹	29.7011	6131.32 M⁻¹ s⁻¹
SGPSH-WIGTA	12792.1 M⁻¹ s⁻¹	19.8718	7015.91 M⁻¹ s⁻¹
SGPSR-LTFTA	12792.1 M⁻¹ s⁻¹	39.8157	12792.1 M⁻¹ s⁻¹
SGPSW-IMRTA	12792.1 M⁻¹ s⁻¹	43.303	12792.1 M⁻¹ s⁻¹
SGPVA-MTKTA	1418.96 M⁻¹ s⁻¹	44.6624	6396.07 M⁻¹ s⁻¹
SGPVH-MWNTA	1154.21 M⁻¹ s⁻¹	35.975	1154.21 M⁻¹ s⁻¹
SGPVS-MRYTA	12792.1 M⁻¹ s⁻¹	41.2029	7015.91 M⁻¹ s⁻¹
SGPWA-ITGTA	12792.1 M⁻¹ s⁻¹	50.8721	12792.1 M⁻¹ s⁻¹
SGPYS-WQVTA	1513.13 M⁻¹ s⁻¹	33.8051	4613.14 M⁻¹ s⁻¹
SGVAG-LYSTA	12792.1 M⁻¹ s⁻¹	21.512	7015.91 M⁻¹ s⁻¹
SGVAW-LKHTA	12792.1 M⁻¹ s⁻¹	35.286	4205.91 M⁻¹ s⁻¹
SGVKG-MYSTA	4335.13 M⁻¹ s⁻¹	17.5008	7815.03 M⁻¹ s⁻¹
SGVKW-LMSTA	4335.13 M⁻¹ s⁻¹	39.0108	12792.1 M⁻¹ s⁻¹
SGVLS-LQSTA	2916.17 M⁻¹ s⁻¹	27.5596	7015.91 M⁻¹ s⁻¹

Substance	Kobs (MMP-2)	relative probability (RP) (MMP-9 [1])	Kobs (MMP-9 [2])
SGVRA-IRQTA	3253.29 M⁻¹ s⁻¹	39.7636	12792.1 M⁻¹ s⁻¹
SGVRA-VYSTA	3079.62 M⁻¹ s⁻¹	25.1531	12792.1 M⁻¹ s⁻¹
SGVRD-LYFTA	1030.73 M⁻¹ s⁻¹	30.416	2916.17 M⁻¹ s⁻¹
SGVRG-LFTTA	6131.32 M⁻¹ s⁻¹	42.3063	12792.1 M⁻¹ s⁻¹
SGVRG-MHGTA	1610.61 M⁻¹ s⁻¹	38.9419	5667.28 M⁻¹ s⁻¹
SGVRS-ITWTA	261.974 M⁻¹ s⁻¹	25.6748	3637.04 M⁻¹ s⁻¹
SGVRW-STSTA	1071.29 M⁻¹ s⁻¹	18.5117	7015.91 M⁻¹ s⁻¹
SGVWN-LMSTA	3438.54 M⁻¹ s⁻¹	38.922	12792.1 M⁻¹ s⁻¹
SGWRA-YTGTA	2476.66 M⁻¹ s⁻¹	29.3104	9740.44 M⁻¹ s⁻¹
SKPWK-LTASG	1561.44 M⁻¹ s⁻¹	43.1496	12792.1 M⁻¹ s⁻¹
SLPLL-LTASG	2996.69 M⁻¹ s⁻¹	32.5638	12792.1 M⁻¹ s⁻¹
SNPFK-YTASG	0 M⁻¹ s⁻¹	32.6605	5461.43 M⁻¹ s⁻¹
SQLGL-LTASG	12792.1 M⁻¹ s⁻¹	4.41	142.481 M⁻¹ s⁻¹
SQPMA-YTASG	12792.1 M⁻¹ s⁻¹	49.7335	12792.1 M⁻¹ s⁻¹
SRPRT-LTASG	12792.1 M⁻¹ s⁻¹	42.2705	12792.1 M⁻¹ s⁻¹
SRPVY-LTASG	12792.1 M⁻¹ s⁻¹	32.5397	12792.1 M⁻¹ s⁻¹
SSPLA-LTASG	12792.1 M⁻¹ s⁻¹	48.3776	12792.1 M⁻¹ s⁻¹
SSPLN-YTASG	12792.1 M⁻¹ s⁻¹	47.778	12792.1 M⁻¹ s⁻¹
SSVSN-LTASG	12792.1 M⁻¹ s⁻¹	31.0505	1610.61 M⁻¹ s⁻¹
STIAH-YTASG	12792.1 M⁻¹ s⁻¹	10.3185	451.441 M⁻¹ s⁻¹
SVLSK-LTASG	12792.1 M⁻¹ s⁻¹	0.5605	0 M⁻¹ s⁻¹
SVPSA-ITASG	12792.1 M⁻¹ s⁻¹	45.9388	12792.1 M⁻¹ s⁻¹

Source: paper PMC7932537, “Quantitative profiling of protease specificity” (PLoS Computational Biology, 2021)
